≈ marks a conversion by molar mass, not a printed value. Calls of active or inactive are those of the source. The rule behind the calls is not given here. A value given as a limit tells only on which side of the number the result lay.

Experimental findings from ChEMBL document CHEMBL5335829, “Akedanones A-C, In Vitro and In Vivo Antiplasmodial 2,3-Dihydronaphthoquinones Produced by Streptomyces sp. K20-0187” (J Nat Prod, 2024) are described below.

For series [1], the system named is Plasmodium falciparum. Nature of the series: Antiplasmodial activity against chloroquine-resistant Plasmodium falciparum K1 assessed as parasite growth inhibition. In kind it is functional, organism-based.
Series [2] deals with Plasmodium falciparum. Nature of the series: Antiplasmodial activity against chloroquine-sensitive Plasmodium falciparum FCR3 assessed as parasite growth inhibition. In kind it is functional, organism-based.
Series [3] in a line: Cytotoxicity against human MRC5 cells assessed as inhibition of cell growth. In kind it is toxicity, cell-based.
Series [4] is described as follows: Selectivity index, ratio of IC50 for cytotoxicity against human MRC5 cells assessed as inhibition of cell growth to IC50 for antiplasmodial activity against chloroquine-resistant Plasmodium falciparum K1 assessed as parasite growth inhibition. In kind it is toxicity, cell-based. To be noted: MRC5 cells versus Plasmodium falciparum K1, read-out: Ratio IC50.
Series [5] in a line: Selectivity index, ratio of IC50 for cytotoxicity against human MRC5 cells assessed as inhibition of cell growth to IC50 for antiplasmodial activity against […] assessed as parasite growth inhibition. In kind it is toxicity, cell-based. To be noted: MRC5 cells versus Plasmodium falciparum FCR3, read-out: Ratio IC50.
Series [6] deals with Kocuria rhizophila. Nature of the series: Antimicrobial activity against Kocuria rhizophila KB212 ATCC 9341 at 30 ug incubated for 1 to 2 days by paper disc method. In kind it is functional, organism-based. To be noted: dose 30.0 µg, time 1-2 day.
Series [7] has as its system Plasmodium berghei. Nature of the series: Antiplasmodial activity against Plasmodium berghei infected in ICR mouse model assessed as reduction in parasitaemia at 5 mg/kg, ip measured for 4 days by peters 4 day suppressive test. Also on record: scale not given: the % may be the effect or the level left. In kind it is functional.
In series [8] the test system is Staphylococcus aureus. Nature of the series: Antimicrobial activity against Staphylococcus aureus KB210 ATCC 6538P assessed as reduction in bacterial growth incubated for 1 to 2 days by paper disc method. To be noted: time 1-2 day. In kind it is functional, organism-based.
Series [9] deals with Kocuria rhizophila. Nature of the series: Antimicrobial activity against Kocuria rhizophila KB212 ATCC 9341 assessed as reduction in bacterial growth incubated for 1 to 2 days by paper disc method. To be noted: time 1-2 day. In kind it is functional, organism-based.
Series [10] relates to Escherichia coli. Nature of the series: Antimicrobial activity against Escherichia coli KB213 NIHJ assessed as reduction in bacterial growth incubated for 1 to 2 days by paper disc method. In kind it is functional, organism-based. To be noted: time 1-2 day.
Series [11] concerns Xanthomonas oryzae. Nature of the series: Antimicrobial activity against Xanthomonas oryzae KB88 assessed as reduction in bacterial growth incubated for 1 to 2 days by paper disc method. In kind it is functional, organism-based. The following applies: time 1-2 day.
Series [12] deals with Candida albicans. Nature of the series: Antimicrobial activity against Candida albicans KF assessed as reduction in […] growth KF1 ATCC 64584 incubated for 1 to 2 days by paper disc method. In kind it is functional, organism-based. To be noted: time 1-2 day.
Series [13] in a line: Toxicity in ICR mouse assessed as body weight loss at 5 mg/kg, ip measured for 4 days. In kind it is organism-based. To be noted: in vivo, 96 h, time 4 day.
The subject of series [14] is Staphylococcus aureus. Nature of the series: Antimicrobial activity against Staphylococcus aureus KB210 ATCC 6538P at > 10 ug incubated for 1 to 2 days by paper disc method. In kind it is functional, organism-based. The following applies: dose > 10.0 µg, time 1-2 day.
Series [15] in a line: Acute toxicity in ICR mouse assessed as sedation at 60 mg/kg, ip and measured for 2 hrs. In kind it is organism-based. The following applies: in vivo.
For series [16], the system named is Plasmodium falciparum. Nature of the series: Antiplasmodial activity against Plasmodium falciparum Dd2 assessed as inhibition of parasite growth. In kind it is functional, organism-based.
The test system of series [17] is Plasmodium falciparum. Nature of the series: Antimalarial activity against chloroquine-resistant Plasmodium falciparum K1 assessed as parasite growth inhibition. In kind it is functional, organism-based.
Series [18] can be described thus: Selectivity index, ratio of IC50 for cytotoxicity against human MRC5 cells assessed as inhibition of cell growth to IC50 for antimalarial activity against chloroquine-resistant Plasmodium falciparum K1 assessed as parasite growth inhibition. In kind it is toxicity, cell-based. The following applies: MRC5 cells versus Plasmodium falciparum K1, read-out: Ratio IC50.

The nature of series [19]: Selectivity index, ratio of IC50 for cytotoxicity against human MRC5 cells assessed as inhibition of cell growth to IC50 for antimalarial activity against […] assessed as parasite growth inhibition. The following applies: MRC5 cells versus Plasmodium falciparum FCR3, read-out: Ratio IC50. In kind it is toxicity, cell-based.

For series [20], the system named is B16. Nature of the series: Cytotoxicity against mouse B16 cells assessed as reduction in cell growth incubated for 3 days. To be noted: B16, 72 h. In kind it is functional, cell-based.
Series [21] deals with HeLa S3. Nature of the series: Cytotoxicity against human HeLa S3 cells assessed as reduction in cell growth incubated for 3 days. In kind it is functional, cell-based. The following applies: HeLa S3, 72 h.

With `COC1=C(C)C(=O)c2c(cc3c(c2O)C(C)(CCC=C(C)C)C(C)O3)C1=O` (centres undefined), the IC50 came out at 0.3 µM in [1], 0.06 µM in [2] and 1.7 µM in series [3]. Also, the selectivity ratio in [4] stood at 5.7; in series [5], 28.3. Further, the result in [6] was inactive. In addition, the Activity in [7] is recorded as 43.1%; in [13], “Non-Toxic”. Also, the result in series [8], in series [9], in series [10], in series [11] and in series [12] was Active.
In the case of `C=CC(C)(C)c1c(O)cc2c(c1O)C(=O)[C@@](C)(O)[C@@H](CC=C(C)C)C2=O`, the half-maximal inhibitory concentration (IC50) in series [1] turned out to be 14.5 µM; in [2] it was 21.7 µM; in [3], 68.8 µM. In addition, the selectivity ratio in series [4] worked out at 4.7; in [5], 3.2. The result in series [14], in series [8], in [9], in series [10], in [11] and in series [12] was Active.
As to `CCN(CC)CCCC(C)Nc1ccnc2cc(Cl)ccc12` (centres undefined) [CHLOROQUINE], the IC50 in [3] was greater than 25 µM.
In the case of `C=CC(C)(C)c1c(O)cc2c(c1O)C(=O)[C@@]1(C)O[C@@]1(CC=C(C)C)C2=O`, the IC50 in series [1] stood at 0.2 µM; in series [2] it was 0.08 µM; in series [3], 0.7 µM. Further, the selectivity ratio turned out to be 3.5 in series [4] and 8.8 in [5]. Moreover, the result in series [14], in series [8], in series [9], in series [10], in series [11] and in series [12] was Active. The Activity is reported as 47.6% in [7], “Non-Toxic” in series [15] and “Non-Toxic” in series [13].
Regarding `CC(C)=CCC1=C(O)C(=O)c2c(O)ccc(O)c2C1=O`, in series [16], the 50% inhibitory concentration (IC50) amounted to 0.82 µg/mL (≈ 2.99 µM).
Turning to `C[C@@H]1CC[C@H]2[C@@H](C)C(=O)O[C@@H]3O[C@@]4(C)CC[C@@H]1[C@]32OO4` [ARTEMISININ], the IC50 in series [17] is 0.03 µM; in series [3], greater than 25 µM. For the same molecule, the selectivity ratio in series [18] and in series [19] was greater than 800 in each case.
For the molecule `C=CC(C)(C)c1c(O)cc2c(c1O)C(=O)[C@@](C)(O)[C@H](CC=C(C)C)C2=O`, the IC50 in series [1] was determined as 43.3 µM; in [2], 51.2 µM; in series [3], 94.2 µM. Moreover, the results for the selectivity ratio in series [4] and in series [5] were 2.2 and 1.8, respectively. Moreover, the result in [14], in [8], in [9], in series [10], in [11] and in series [12] was Active.
Consider `COC1=C(C)C(=O)c2c(cc(O)c3c2O[C@H](C)[C@]3(C)CCC=C(C)C)C1=O`, for which the IC50 in series [20] turned out to be 0.63 µg/mL (≈ 1.7 µM); in series [21], 1.22 µg/mL (≈ 3.29 µM).
Consider `C[C@H]1[C@H](OC(=O)CCC(=O)O)O[C@@H]2O[C@@]3(C)CC[C@H]4[C@H](C)CC[C@@H]1[C@@]24OO3` [ARTESUNATE], for which the Activity in [7] is given as 94.2%; in [13], “Non-Toxic”.

In general, IC50 refers to the concentration needed to halve the response being measured.
